Assay results: paper PMC4321955 (Free radical biology & medicine, 2013)

What was measured:
[1] = ref NCBI PubChem compound database; cited from earlier work
[2] = test system: outer ubiquinone-binding site of complex III (site IIIQo); experiment: site IIIQo superoxide/H2O2 production assay; type: biochemical, rat
[3] = target: ubiquinone-binding site of complex I (site IQ) (Rattus norvegicus, UniProt A6K8N6+P03889+Q641Y2); experiment: site IQ superoxide/H2O2 production assay; type: biochemical; details: at the compound's estimated IC50 (80 µM for compound 15); 5 mM succinate
[4] = test system: mitochondrial membrane potential (ΔΨm); experiment: ΔΨm assay with potentiometric dye TMRM; type: biochemical, rat; details: for lowest concentration that significantly decreased ΔΨm: 5 mM glutamate plus 5 mM malate
[5] = test system: mitochondrial sn-glycerol 3-phosphate dehydrogenase (mGPDH); experiment: mGPDH superoxide/H2O2 production assay; type: biochemical, rat
[6] = test system: site IF/DH (site IF plus matrix NAD-linked dehydrogenases); experiment: site IF/DH superoxide/H2O2 production assay; type: biochemical, rat
site IF = experiment: steady-state H2O2 production specifically from site IF; type: biochemical, rat; details: […] CN-POBS; 5 mM malate, […] ATP, 1.5 mM aspartate, 4 µM rotenone, 1 µg/mL oligomycin
complex I = experiment: rate of reverse electron transport from succinate to NAD; type: biochemical, rat
[7] = test system: flavin site of complex II (site IIF); experiment: site IIF superoxide/H2O2 production assay; type: biochemical, rat
site IQ = type: biochemical, rat; details: […] CN-POBS
[8] = at the compound's estimated site IQ IC50 (80 µM for compound 15)
[9] = dose-response 0.08-80 µM, none observed below this

For `O=[N+]([O-])c1ccc(Oc2ccc(S(=O)(=O)NC3CCCCC3)cc2)cc1` [CN-POBS, N-cyclohexyl-4-(4-nitrophenoxy)benzenesulfonamide], the LogP [1] is listed as 4.1, the “IIIQo: normalized percent change from DMSO in H2O2 production” value [2, 8] is listed as 0% and the “concentration with significant effects on H2O2 production from site IIIQo” value [2, 9] is listed as ≥ 25 µM. For the same compound, the “IQ: normalized percent change from DMSO in H2O2 production” value [3] was −56%, the “lowest concentration that significantly decreased ΔΨm” value ([4]; absence of nigericin, TMRM) was 8 µM and the “lowest concentration that significantly decreased ΔΨm” value ([4]; presence of nigericin, TMRM) was 25 µM. The “concentration that significantly decreased ΔΨm” value ([4]; 5 mM succinate and 4 µM rotenone, TMRM) was 80 µM, the “ΔΨm: normalized percent change from DMSO” value [4, 8] was −1% and the “mGPDH: normalized percent change from DMSO in H2O2 production” value [5, 8] was −2%. For the same compound, the “concentration with significant effects on H2O2 production from mGPDH” value [5, 9] was ≥ 25 µM, the “IF/DH: normalized percent change from DMSO in H2O2 production” value [6, 8] was 7% and the “concentration with significant effects on H2O2 production from site IF/DH” value [6, 9] was ≥ 25 µM. For the same compound, the “effect on H2O2 production specifically from site IF” value (site IF) was “no effect”, the “concentration with significant effect on reverse electron flux through complex I (rate of NAD(P)+ reduction)” value (complex I; 5 mM succinate plus 0.5 mM glutamate, no significant effect below this) was ≥ 25 µM and the “Rate of NAD(P)+ Reduction: normalized percent change from DMSO” value (complex I; at the compound's estimated site IQ IC50, succinate via complex I) was −1%. For the same compound, the “IIF: normalized percent change from DMSO in H2O2 production” value [7, 8] was 4%, the “concentration with significant effects on H2O2 production from site IIF” value [7, 9] was ≥ 25 µM and the “decrease in total rate of H2O2 production” value (site IQ; 5 mM succinate alone) was 50%. For the same compound, the “effect on H2O2 production by succinate in the presence of rotenone (from site IF/DH)” value (site IQ; 5 mM succinate with 4 µM rotenone) was “no significant effect”.
